The assay has as its target T1, TcMCU-EMRE (TcMCU-EMREEM2) (Tribolium castaneum, UniProt D6WIX5).
T1 construct: gene MCU; MCU without N-terminal domain (residues 1-168 removed), covalently fused to EMRE by flexible peptide linker; tetramer; Venus fusion removed by PreScission cleavage; expressed in Expi293 cells; purified, reconstituted in liposomes and planar bilayer; with Essential MCU regulator, mitochondrial
T1 sequence (D6WIX5 169-367): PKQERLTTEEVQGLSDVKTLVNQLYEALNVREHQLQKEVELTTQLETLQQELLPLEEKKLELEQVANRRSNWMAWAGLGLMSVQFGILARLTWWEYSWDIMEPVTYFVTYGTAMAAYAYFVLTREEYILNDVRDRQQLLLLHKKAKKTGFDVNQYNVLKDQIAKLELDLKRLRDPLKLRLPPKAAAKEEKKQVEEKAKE
T1 sequence (D6X268 1-90 partner): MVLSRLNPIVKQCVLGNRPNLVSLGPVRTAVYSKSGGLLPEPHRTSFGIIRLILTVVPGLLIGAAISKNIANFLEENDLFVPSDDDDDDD
Briefly: planar lipid bilayer electrophysiology, inhibition of macroscopic Ca2+ currents. Format: biochemical. The note with it: symmetric 40 mM CaCl2, -160 mV, pH 7.6, 22-24 C; RuRed titrated in trans chamber with 1 uM RuRed in cis; IMS-side blocker.

Each structure is given as a SMILES string.

In general, IC50 refers to the midpoint of a concentration-inhibition curve. The low end stands for greater potency, the high end for weaker potency.

`Cl.Cl.Cl.Cl.Cl.Cl.N.N.N.N.N.N.N.N.N.N.N.N.N.N.[O-2].[O-2].[Ru+3].[Ru+3].[Ru+4]` [ruthenium red]: the IC50 is ~40 nM.

Values taken from PMC9757755, “Mechanisms of ion selectivity and throughput in the mitochondrial calcium uniporter” (Science Advances, 2022).
